Laboratory results reported in PubChem BioAssay (NCI).
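How tested: cells in 96-well plates exposed to compound for 48 hours at five concentrations. GI50 is the concentration that inhibits growth by half. TGI is the concentration that stops growth completely.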

Columns and labels:
Experiment in all cases: NCI anticancer screen, dose series, 48 h
[1] = tested on: UACC-62 melanoma
[2] = tested on: SK-MEL-28 melanoma
[3] = tested on: SNB-19 CNS
[4] = tested on: SK-OV-3 ovarian
[5] = tested on: SK-MEL-5 melanoma
[6] = tested on: UO-31 renal
[7] = tested on: TK-10 renal
[8] = tested on: MDA-MB-435
[9] = tested on: K-562 leukemia
[10] = tested on: HT29 colon

Row | Compound | TGI [1] [µM] | TGI [2] [µM] | TGI [3] [µM] | TGI [4] [µM] | TGI [5] [µM] | TGI [6] [µM] | TGI [7] [µM] | TGI [8] [µM] | TGI [9] [µM] | TGI [10] [µM] | GI50 [1] [µM] | GI50 [2] [µM] | GI50 [3] [µM] | GI50 [5] [µM] | GI50 [6] [µM] | GI50 [7] [µM] | GI50 [8] [µM] | GI50 [9] [µM] | GI50 [10] [µM]
1 | COC1=CC(=O)CC(C)C12Oc1c(Cl)c(OC)cc(OC)c1C2=O (stereo not drawn) | > 100 | > 100 | > 100 | > 100 | > 100 | > 88.1 | > 100 | 6.42 | > 66.4 | > 100 | – | – | – | – | – | – | – | – | –
2 | Cc1cccc(N2C(=O)C3c4[nH]c5ccccc5c4C4CCC(C(C)(C)C)CC4C3C2=O)c1 (stereo not drawn) | 49 | 31.4 | 26 | – | 28.4 | 28.6 | 27.2 | 29.6 | 17.4 | 28.9 | – | – | – | – | – | – | – | – | –
3 | CC(=O)Nc1c(S(=O)(=O)c2ccccc2)c(C)c(C)n1Cc1ccccc1 | > 100 | > 100 | > 100 | > 100 | > 100 | > 100 | > 100 | > 100 | > 100 | > 100 | – | – | – | – | – | – | – | – | –
4 | CCOC(=O)C(NC(=O)c1ccccc1)(N1CCN(c2cc3c(cc2F)c(=O)c(C(=O)O)cn3CC)CC1)C(F)(F)F (stereo not drawn) | > 100 | – | > 100 | 79.5 | 65.7 | 98.1 | 94.8 | > 100 | > 100 | > 100 | – | – | – | – | – | – | – | – | –
5 | O=c1oc2ccccc2cc1-c1cn2c(n1)sc1ccccc12 | > 100 | > 100 | – | > 100 | > 100 | > 100 | > 100 | > 100 | > 100 | 11.8 | – | – | – | – | – | – | – | – | –
6 | c1csc(-c2ccsc2-c2cccs2)c1 | > 100 | – | – | > 100 | > 100 | > 100 | > 100 | 53.7 | – | > 100 | – | – | – | – | – | – | – | – | –
7 | COc1ccccc1NC(=O)CC(=O)N1N=C(N2c3ccccc3Sc3ccccc32)CC1c1ccccc1 (stereo not drawn) | > 100 | > 100 | > 100 | > 100 | > 100 | > 100 | > 100 | > 100 | > 100 | > 100 | – | – | – | – | – | – | – | – | –
8 | S=c1[nH]n2c(CCCCCCCCc3nnc4sc(=S)[nH]n34)nnc2s1 | > 100 | > 100 | > 100 | > 100 | – | > 100 | – | > 100 | > 100 | > 100 | – | – | – | – | – | – | – | – | –
9 | O=C(/C=C(\S/C=C(/c1ccccc1)N1CCn2c(C(=O)c3ccccc3)c(C(=O)c3ccccc3)c(C(=O)c3ccccc3)c21)C(=O)c1ccccc1)c1ccccc1 | > 10 | > 10 | > 10 | > 10 | > 10 | – | > 10 | > 10 | > 10 | > 10 | – | – | – | – | – | – | – | – | –
10 | Cn1c(CO)ccc1-c1ccc(-c2ccc[se]2)[se]1 | – | > 100 | > 100 | 27.2 | > 90.2 | > 100 | – | 26.2 | > 43.3 | > 100 | – | – | – | – | – | – | – | – | –
11 | O=C(N/N=C\c1ccc(N(CCCl)CCCl)cc1[N+](=O)[O-])c1cccnc1 | > 100 | > 100 | > 100 | – | > 100 | > 100 | > 100 | > 100 | > 100 | > 100 | > 100 | > 100 | > 100 | > 100 | > 100 | > 100 | > 100 | > 100 | > 100
12 | O=C(CSc1nc(-c2ccccc2)c(-c2ccccc2)[nH]1)N/N=C/c1ccc(O)cc1 | 54.9 | > 100 | > 100 | 65.2 | – | 93.2 | 72.3 | – | > 100 | 37.1 | – | – | – | – | – | – | – | – | –
13 | COc1c2c(c3ccccc3c1O)C1C=CC2C1 (stereo not drawn) | 30.4 | 37.9 | – | – | 19.1 | 17.6 | 36.8 | – | – | 39.2 | – | – | – | – | – | – | – | – | –
14 | CC(C)=CCc1[nH]c2ccccc2c1C1=C(O)C(=O)C(c2c(CC=C(C)C)[nH]c3ccccc23)=C(O)C1=O | 2.94 | 2.9 | 16.4 | 4.13 | 4.12 | 3.14 | – | 2.39 | 6.31 | 6.34 | – | – | – | – | – | – | – | – | –
15 | CSc1ccn(C2CC(F)C(CO)O2)c(=O)n1 (stereo not drawn) | > 100 | – | > 100 | > 100 | > 100 | > 100 | > 100 | > 100 | > 100 | > 100 | – | – | – | – | – | – | – | – | –
16 | CC(=O)Oc1ccc2c(c1)CC[C@@H]1C2[C@@H](O[N+](=O)[O-])C[C@@]2(C)C1CC[C@@H]2O[N+](=O)[O-] (stereo partly drawn) | 32.5 | 28.7 | 32.4 | – | 22.7 | 26.1 | 35.7 | 33.5 | 32.6 | 30.2 | – | – | – | – | – | – | – | – | –
